Source: patent US10722530B2, “Methods of diagnosing and treating cancer” (CASE WESTERN RESERVE UNIVERSITY, priority 2016, dated 2020)
Read-outs that look alike come from different tables or passages of the source.

Legend:
DLD1 colon cancer cells = settings: for effect of UDG depletion on drug sensitivity: DLD1 shUDG vs shSCR
Method: UDG knockdown was performed via shRNA transduction with validated clone from Sigma-Aldrich. […] A non-targeted scramble control shRNA clone (Sigma-Aldrich) was also used. Transfection of shRNA clones was performed according to manufacturer's specifications from Lipofectamine 2000 (Invitrogen). Lentiviral particles were produced via HEK293 cells, and targeted cells were infected and selected with puromycin. The stable UDG knockdown levels were verified for q-PCR and western blot analysis.
Colonies were stained with methylene blue, and only colonies containing ≥50 cells were counted. The percentage of survival was determined relative to untreated control averaged over 3 independent experiments.

[1] = system: HEC1A endometrial cancer cells; experiment: Colony survival assay, shSCR and shUDG cells; format: cell-based, human; settings: HEC1A shUDG vs shSCR
Method: UDG knockdown was performed via shRNA transduction with validated clone from Sigma-Aldrich. The ID of UDG shRNA clone is NM_003362.2-656s21c1. A non-targeted scramble control shRNA clone (Sigma-Aldrich) was also used. Transfection of shRNA clones was performed according to manufacturer's specifications from Lipofectamine 2000 (Invitrogen). Lentiviral particles were produced via HEK293 cells, and targeted cells were infected and selected with puromycin. The stable UDG knockdown levels were verified for q-PCR and western blot analysis.
DLD1 (200 cells/well) or HEC1A (300 cells/well) cells were plated in 6-well culture dishes and allowed to adhere for 16 h. Cells were treated with drug for 24 h, gently washed twice with 1×PBS, and incubated with fresh media for at least 10 days to allow individual colonies to form. Colonies were stained with methylene blue, and only colonies containing ≥50 cells were counted. The percentage of survival was determined relative to untreated control averaged over 3 independent experiments.

[2] = system: γH2AX foci in HEC1A cells; experiment: γH2AX foci immunofluorescence staining; format: cell-based, human; settings: 10 μM Q-VD-OPh with 50 nM 5-FdU, HEC1A shSCR or shUDG
Method: (§1) Cells cultured on glass coverslips were treated with 5-FdU in the presence or absence of 10 μM caspase inhibitor Q-VD-OPH (BioVision Inc). Cells were fixed in 3.7% formaldehyde for 10 minutes, blocked with PBS containing 10% FBS and 0.1% Triton X-100 for 20 minutes, washed with PBS three times, and incubated with primary anti-γH2AX antibody (Millipore, dilution: 1:150) in PBS containing 0.1% Triton X-100 at 4° C. overnight. The cells were then washed with PBS three times, incubated with secondary antibodies (Alexa Fluor 594, Life Technologies; dilution: 1:400) in PBS containing 0.1% Triton X-100 for 1 h, and washed with PBS three times. The slides were mounted with antifade solution with DAPI (Cell Signaling) and visualized on a Leica laser microscope.

γH2AX foci in DLD1 cells = experiment: γH2AX foci immunofluorescence staining; format: cell-based, human; settings: 10 μM Q-VD-OPh with 50 nM 5-FdU, DLD1 shSCR or shUDG
Method: as §1

[3] = system: cleaved PARP in DLD1 cells; experiment: Western blot of cleaved PARP; format: cell-based, human; settings: 10 μM Q-VD-OPh, 50 nM 5-FdU, DLD1 shSCR and shUDG
Method: (§2) Western blots were performed as described in Yan et al. (Clin Cancer Res. (2007) 13:1532-39). Antibodies used were as follows: Anti-UDG (FL-313) (Santa Cruz Biotechnology), anti-Cleaved PARP (Asp214)(19F4) (Cell Signaling), and anti-α-Tubulin (Calbiochem).

[4] = system: cleaved PARP in HEC1A cells; experiment: Western blot of cleaved PARP; format: cell-based, human; settings: 10 μM Q-VD-OPh, 50 nM 5-FdU, HEC1A shSCR and shUDG
Method: as §2

Text for HCT116 p53 KO cells: (§3) p53 or UDG knockdown was achieved via shRNA transduction. Lentiviral vectors LV-THM-shp53 (which also expresses a GFP reporter) or LV-Bleo-shp53 to perform p53 KD in WT HCT116 cells were obtained from Case Western Reserve University, Cleveland, Ohio Lentiviral vector targeting GFP (sh-GFP) was used as control. UDG shRNA vectors (shUDG: NM_003362.2-656s21c1, shUDG-2: NM_003362.2-758s21c1, and shUDG-3: NM_003362.2-893s21c1) were purchased from Sigma, and a scramble targeting shRNA vector (Sigma) was used as paired control. The lentiviral production and infection were performed as previously described. Cells stably infected with LV-THM-p53 were isolated by cell sorting on the basis of their GFP expression.
(§4) Cancer cells (200-300 cells/well) were seeded in 6-well culture dishes and allowed to adhere overnight. For 5-FdU, cells were treated for 24 h, then gently washed with PBS, and incubated with fresh media for at least 10 days to allow individual colonies to form. […] After 10-18 days, the plates were stained with methylene blue. Colonies containing ≥50 cells were counted. The percentage of survival was determined relative to untreated control averaged over 3 independent experiments.
Text for HCT116 p53 WT cells: as §3, §4

## Nc1nc2[nH]cc(CCc3ccc(C(=O)N[C@@H](CCC(=O)O)C(=O)O)cc3)c2c(=O)[nH]1 [pemetrexed]
DLD1 colon cancer cells
  effect of UDG depletion on drug sensitivity: sensitization was also observed
[1]
  effect of UDG depletion on drug sensitivity: sensitization was also observed
HCT116 p53 KO cells
  effect of UDG depletion on cytotoxicity: sensitized
HCT116 p53 WT cells
  effect of UDG depletion on cytotoxicity: no significant survival differences

## Cc1cn([C@H]2C[C@H](O)[C@@H](CO)O2)c(=O)[nH]c1=O [thymidine]
DLD1 colon cancer cells; 20 μM thymidine 24 h after 5-FdU, UDG depleted cells
  rescue of 5-FdU cell death by thymidine given 24 h after: barely inhibited cell death
DLD1 colon cancer cells; 20 μM thymidine simultaneously with 0 to 200 nM 5-FdU, shSCR or shUDG
  cell killing by 5-FdU with simultaneous thymidine: almost no killing

## CC(C)[C@H](NC(=O)c1ccc2ccccc2n1)C(=O)N[C@@H](CC(=O)O)C(=O)COc1c(F)cccc1F [Q-VD-OPh]
[2]
  γH2AX foci, Q-VD-OPh treated vs non-treated: essentially the same
γH2AX foci in DLD1 cells
  γH2AX foci, Q-VD-OPh treated vs non-treated: essentially the same
[3]
  cleaved PARP induced by 5-FdU in presence of Q-VD-OPh: almost completely blocked
[4]
  cleaved PARP induced by 5-FdU in presence of Q-VD-OPh: almost completely blocked

## N.N.[Cl][Pt][Cl] [cisplatin, cis-diamminedichloroplatinum II]
DLD1 colon cancer cells
  effect of UDG depletion on drug sensitivity: no further sensitivity
[1]
  effect of UDG depletion on drug sensitivity: no further sensitivity

## COc1cccc2c1C(=O)c1c(O)c3c(c(O)c1C2=O)C[C@@](O)(C(=O)CO)C[C@@H]3O[C@H]1C[C@H](N)[C@H](O)[C@H](C)O1 [doxorubicin]
DLD1 colon cancer cells
  effect of UDG depletion on drug sensitivity: no further sensitivity
[1]
  effect of UDG depletion on drug sensitivity: no further sensitivity

## O=c1[nH]cc(F)c(=O)[nH]1 [5-FU, 5-Fluorouracil]
HCT116 p53 KO cells; HCT116 p53 KO, shUDG vs shSCR
  effect of UDG depletion on cytotoxicity: only moderately sensitized
HCT116 p53 WT cells; HCT116 p53 WT, shUDG vs shSCR
  effect of UDG depletion on cytotoxicity: no significant survival differences
